Test results published in ChEMBL document CHEMBL1153895, “Discovery of 4,6-bis-anilino-1H-pyrrolo[2,3-d]pyrimidines: potent inhibitors of the IGF-1R receptor tyrosine kinase” (Bioorg Med Chem Lett, 2009).

Key:
[1] = target: T1, Insulin-like growth factor 1 receptor (Homo sapiens, UniProt P08069); assay: Inhibition of human IGF1R phosphorylation expressed in HEK293 cells by DELFIA; format: cell-based
[2] = target: T1, Insulin-like growth factor 1 receptor; assay: Inhibition of GST-tagged human IGF1R expressed in Sf9 cells by Wallac Victor fluorometer
[3] = Cmax in rat at 1.7 mg/kg, iv and 10.5 mg/kg, po; format: ADME, organism-based; details: in vivo
[4] = Clearance in rat at 1.7 mg/kg, iv; format: ADME, organism-based; set-up: dose 1.7 mg/kg, route intravenous; details: in vivo
[5] = Bioavailability in rat at 1.7 mg/kg, iv and 10.5 mg/kg, po; format: ADME, organism-based; details: in vivo
[6] = Volume of distribution at steady state in rat at 1.7 mg/kg, iv and 10.5 mg/kg, po; format: ADME, organism-based; details: in vivo, read-out: Vdss
Rattus norvegicus [7] = assay: Dose normalized AUC in rat at 1.7 mg/kg, iv and 10.5 mg/kg, po; format: ADME, organism-based; details: in vivo
Rattus norvegicus [8] = assay: Volume of distribution at steady state in rat at 2.3mg/kg, iv and 10.7 mg/kg, po; format: ADME, organism-based; set-up: dose 10.7 mg/kg, route oral; details: in vivo
Rattus norvegicus [9] = assay: Dose normalized AUC in rat at 2.3 mg/kg, iv and 10.7 mg/kg, po; format: ADME, organism-based; details: in vivo
[10] = Cmax in rat at 2.3mg/kg, iv and 10.7 mg/kg, po; format: ADME, organism-based; set-up: dose 10.7 mg/kg, route oral; details: in vivo
[11] = Bioavailability in rat at 2.3 mg/kg, iv and 10.7 mg/kg, po; format: ADME, organism-based; details: in vivo
[12] = Clearance in rat at 2.3 mg/kg, iv; format: ADME, organism-based; set-up: dose 2.3 mg/kg, route intravenous; details: in vivo
[13] = Bioavailability in rat at 4.2 mg/kg, iv and 13.6 mg/kg, po; format: ADME, organism-based; details: in vivo
Rattus norvegicus [14] = assay: Dose normalized AUC in rat at 4.2 mg/kg, iv and 13.6 mg/kg, po; format: ADME, organism-based; details: in vivo
Rattus norvegicus [15] = assay: Volume of distribution at steady state in rat at 4.2mg/kg, iv and 13.6 mg/kg, po; format: ADME, organism-based; set-up: dose 13.6 mg/kg, route oral; details: in vivo
[16] = Cmax in rat at 4.2mg/kg, iv and 13.6 mg/kg, po; format: ADME, organism-based; set-up: dose 13.6 mg/kg, route oral; details: in vivo
[17] = Clearance in rat at 4.2 mg/kg, iv; format: ADME, organism-based; set-up: dose 4.2 mg/kg, route intravenous; details: in vivo
[18] = Cmax in rat at 2.1 mg/kg, iv and 9.2 mg/kg, po; format: ADME, organism-based; details: in vivo
Rattus norvegicus [19] = assay: Dose normalized AUC in rat at 2.1 mg/kg, iv and 9.2 mg/kg, po; format: ADME, organism-based; details: in vivo
[20] = Volume of distribution at steady state in rat at 2.1 mg/kg, iv and 9.2 mg/kg, po; format: ADME, organism-based; details: in vivo, read-out: Vdss
Rattus norvegicus [21] = assay: Dose normalized AUC in rat at 2.0 mg/kg, iv and 10.6 mg/kg, po; format: ADME, organism-based; details: in vivo
[22] = Cmax in rat at 2.0mg/kg, iv and 10.6 mg/kg, po; format: ADME, organism-based; set-up: dose 10.6 mg/kg, route oral; details: in vivo
[23] = Bioavailability in rat at 2.0 mg/kg, iv and 10.6 mg/kg, po; format: ADME, organism-based; details: in vivo
Rattus norvegicus [24] = assay: Volume of distribution at steady state in rat at 2.0mg/kg, iv and 10.6 mg/kg, po; format: ADME, organism-based; set-up: dose 10.6 mg/kg, route oral; details: in vivo
[25] = Clearance in rat at 2.0 mg/kg, iv; format: ADME, organism-based; set-up: dose 2 mg/kg, route intravenous; details: in vivo
Aurora kinase B = Aurora kinase B (Homo sapiens, UniProt Q96GD4); assay: Inhibition of Aurora B
[26] = target: Mitogen-activated protein kinase 8 (Homo sapiens, UniProt P45983); assay: Inhibition of JNK1
[27] = target: ALK tyrosine kinase receptor (Homo sapiens, UniProt Q9UM73); assay: Inhibition of ALK
Insulin receptor = Insulin receptor (Homo sapiens, UniProt P06213); assay: Inhibition of human IR
Chain of Insulin receptor (P06213 28-758 limits assumed): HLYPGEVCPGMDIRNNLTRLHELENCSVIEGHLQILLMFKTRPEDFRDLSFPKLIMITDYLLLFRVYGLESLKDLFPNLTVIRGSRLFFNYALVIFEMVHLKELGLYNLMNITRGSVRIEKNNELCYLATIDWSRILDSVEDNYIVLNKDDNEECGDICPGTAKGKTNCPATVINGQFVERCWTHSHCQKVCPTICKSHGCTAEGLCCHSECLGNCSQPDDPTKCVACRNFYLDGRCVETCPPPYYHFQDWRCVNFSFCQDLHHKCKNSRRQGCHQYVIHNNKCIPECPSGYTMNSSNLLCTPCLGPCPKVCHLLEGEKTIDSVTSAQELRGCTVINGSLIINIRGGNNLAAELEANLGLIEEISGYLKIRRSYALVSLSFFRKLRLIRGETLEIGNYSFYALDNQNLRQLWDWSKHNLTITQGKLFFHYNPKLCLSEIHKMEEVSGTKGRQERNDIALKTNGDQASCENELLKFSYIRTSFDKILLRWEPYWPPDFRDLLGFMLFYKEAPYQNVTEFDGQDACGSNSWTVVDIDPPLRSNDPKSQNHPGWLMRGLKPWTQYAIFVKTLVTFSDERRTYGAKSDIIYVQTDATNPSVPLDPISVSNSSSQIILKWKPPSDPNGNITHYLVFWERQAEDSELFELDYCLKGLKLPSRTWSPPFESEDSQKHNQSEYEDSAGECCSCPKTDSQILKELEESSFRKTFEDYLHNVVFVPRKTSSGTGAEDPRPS
Chain of Insulin receptor (P06213 763-1382 limits assumed): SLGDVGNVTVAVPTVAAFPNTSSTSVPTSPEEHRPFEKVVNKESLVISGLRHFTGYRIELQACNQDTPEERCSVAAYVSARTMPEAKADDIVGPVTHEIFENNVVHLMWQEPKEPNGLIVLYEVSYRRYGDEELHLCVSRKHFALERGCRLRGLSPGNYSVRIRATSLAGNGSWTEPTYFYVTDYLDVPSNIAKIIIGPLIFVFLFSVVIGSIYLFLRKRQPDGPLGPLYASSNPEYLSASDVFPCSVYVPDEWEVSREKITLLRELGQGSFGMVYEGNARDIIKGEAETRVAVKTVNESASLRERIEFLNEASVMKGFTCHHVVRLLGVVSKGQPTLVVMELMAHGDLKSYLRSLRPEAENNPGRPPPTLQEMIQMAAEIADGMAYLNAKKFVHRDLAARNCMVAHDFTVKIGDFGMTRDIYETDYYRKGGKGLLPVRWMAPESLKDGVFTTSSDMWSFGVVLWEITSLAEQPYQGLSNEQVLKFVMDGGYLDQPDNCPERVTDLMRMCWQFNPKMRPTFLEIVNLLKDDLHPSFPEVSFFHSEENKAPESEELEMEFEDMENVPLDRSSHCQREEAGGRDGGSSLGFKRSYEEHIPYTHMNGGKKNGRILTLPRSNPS

Chain of Aurora kinase B (Q96GD4 whole entry): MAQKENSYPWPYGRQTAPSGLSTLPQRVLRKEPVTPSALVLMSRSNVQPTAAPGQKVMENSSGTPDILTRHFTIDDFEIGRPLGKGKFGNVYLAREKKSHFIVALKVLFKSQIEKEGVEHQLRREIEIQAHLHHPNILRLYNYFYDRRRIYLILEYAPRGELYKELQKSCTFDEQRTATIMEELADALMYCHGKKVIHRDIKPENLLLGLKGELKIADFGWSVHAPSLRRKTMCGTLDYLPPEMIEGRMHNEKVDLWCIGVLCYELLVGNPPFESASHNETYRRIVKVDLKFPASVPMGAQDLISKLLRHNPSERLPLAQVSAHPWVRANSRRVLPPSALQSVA
T1 sequence (P08069 31-736 limits assumed): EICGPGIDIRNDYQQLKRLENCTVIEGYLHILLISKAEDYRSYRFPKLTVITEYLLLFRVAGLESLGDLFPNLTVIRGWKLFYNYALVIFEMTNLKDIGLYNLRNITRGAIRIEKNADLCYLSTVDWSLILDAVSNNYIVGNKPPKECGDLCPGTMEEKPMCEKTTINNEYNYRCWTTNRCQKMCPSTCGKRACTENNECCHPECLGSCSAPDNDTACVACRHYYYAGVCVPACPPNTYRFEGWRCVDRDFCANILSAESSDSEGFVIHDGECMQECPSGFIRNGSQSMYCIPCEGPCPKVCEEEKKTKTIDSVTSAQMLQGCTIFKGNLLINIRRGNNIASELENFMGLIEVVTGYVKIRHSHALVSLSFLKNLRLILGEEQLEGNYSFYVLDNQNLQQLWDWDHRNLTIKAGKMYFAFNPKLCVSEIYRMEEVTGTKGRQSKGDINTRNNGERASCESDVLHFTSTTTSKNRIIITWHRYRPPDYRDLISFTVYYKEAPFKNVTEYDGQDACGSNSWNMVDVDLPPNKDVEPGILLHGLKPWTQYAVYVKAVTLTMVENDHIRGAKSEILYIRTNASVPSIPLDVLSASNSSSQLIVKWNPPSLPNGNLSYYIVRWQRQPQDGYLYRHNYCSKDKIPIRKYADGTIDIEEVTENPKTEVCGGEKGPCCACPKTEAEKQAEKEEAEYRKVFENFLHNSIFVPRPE
T1 sequence (P08069 741-1367 limits assumed): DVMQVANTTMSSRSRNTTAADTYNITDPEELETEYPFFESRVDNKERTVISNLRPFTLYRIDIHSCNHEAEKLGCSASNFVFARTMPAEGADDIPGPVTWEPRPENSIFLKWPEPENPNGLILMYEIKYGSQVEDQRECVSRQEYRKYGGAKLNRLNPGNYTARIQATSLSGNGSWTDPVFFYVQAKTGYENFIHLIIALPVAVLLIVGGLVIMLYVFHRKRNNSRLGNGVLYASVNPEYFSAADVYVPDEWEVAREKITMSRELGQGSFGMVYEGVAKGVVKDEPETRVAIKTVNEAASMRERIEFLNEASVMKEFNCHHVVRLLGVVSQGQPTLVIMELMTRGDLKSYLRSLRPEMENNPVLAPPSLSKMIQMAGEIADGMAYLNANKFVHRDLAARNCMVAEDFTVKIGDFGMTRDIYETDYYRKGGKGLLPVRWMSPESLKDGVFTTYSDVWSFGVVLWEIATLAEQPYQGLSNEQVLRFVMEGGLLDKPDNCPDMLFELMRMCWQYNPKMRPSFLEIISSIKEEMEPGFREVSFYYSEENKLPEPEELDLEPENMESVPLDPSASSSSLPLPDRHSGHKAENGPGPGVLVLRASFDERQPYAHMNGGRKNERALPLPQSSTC
Chain of ALK tyrosine kinase receptor (Q9UM73 whole entry): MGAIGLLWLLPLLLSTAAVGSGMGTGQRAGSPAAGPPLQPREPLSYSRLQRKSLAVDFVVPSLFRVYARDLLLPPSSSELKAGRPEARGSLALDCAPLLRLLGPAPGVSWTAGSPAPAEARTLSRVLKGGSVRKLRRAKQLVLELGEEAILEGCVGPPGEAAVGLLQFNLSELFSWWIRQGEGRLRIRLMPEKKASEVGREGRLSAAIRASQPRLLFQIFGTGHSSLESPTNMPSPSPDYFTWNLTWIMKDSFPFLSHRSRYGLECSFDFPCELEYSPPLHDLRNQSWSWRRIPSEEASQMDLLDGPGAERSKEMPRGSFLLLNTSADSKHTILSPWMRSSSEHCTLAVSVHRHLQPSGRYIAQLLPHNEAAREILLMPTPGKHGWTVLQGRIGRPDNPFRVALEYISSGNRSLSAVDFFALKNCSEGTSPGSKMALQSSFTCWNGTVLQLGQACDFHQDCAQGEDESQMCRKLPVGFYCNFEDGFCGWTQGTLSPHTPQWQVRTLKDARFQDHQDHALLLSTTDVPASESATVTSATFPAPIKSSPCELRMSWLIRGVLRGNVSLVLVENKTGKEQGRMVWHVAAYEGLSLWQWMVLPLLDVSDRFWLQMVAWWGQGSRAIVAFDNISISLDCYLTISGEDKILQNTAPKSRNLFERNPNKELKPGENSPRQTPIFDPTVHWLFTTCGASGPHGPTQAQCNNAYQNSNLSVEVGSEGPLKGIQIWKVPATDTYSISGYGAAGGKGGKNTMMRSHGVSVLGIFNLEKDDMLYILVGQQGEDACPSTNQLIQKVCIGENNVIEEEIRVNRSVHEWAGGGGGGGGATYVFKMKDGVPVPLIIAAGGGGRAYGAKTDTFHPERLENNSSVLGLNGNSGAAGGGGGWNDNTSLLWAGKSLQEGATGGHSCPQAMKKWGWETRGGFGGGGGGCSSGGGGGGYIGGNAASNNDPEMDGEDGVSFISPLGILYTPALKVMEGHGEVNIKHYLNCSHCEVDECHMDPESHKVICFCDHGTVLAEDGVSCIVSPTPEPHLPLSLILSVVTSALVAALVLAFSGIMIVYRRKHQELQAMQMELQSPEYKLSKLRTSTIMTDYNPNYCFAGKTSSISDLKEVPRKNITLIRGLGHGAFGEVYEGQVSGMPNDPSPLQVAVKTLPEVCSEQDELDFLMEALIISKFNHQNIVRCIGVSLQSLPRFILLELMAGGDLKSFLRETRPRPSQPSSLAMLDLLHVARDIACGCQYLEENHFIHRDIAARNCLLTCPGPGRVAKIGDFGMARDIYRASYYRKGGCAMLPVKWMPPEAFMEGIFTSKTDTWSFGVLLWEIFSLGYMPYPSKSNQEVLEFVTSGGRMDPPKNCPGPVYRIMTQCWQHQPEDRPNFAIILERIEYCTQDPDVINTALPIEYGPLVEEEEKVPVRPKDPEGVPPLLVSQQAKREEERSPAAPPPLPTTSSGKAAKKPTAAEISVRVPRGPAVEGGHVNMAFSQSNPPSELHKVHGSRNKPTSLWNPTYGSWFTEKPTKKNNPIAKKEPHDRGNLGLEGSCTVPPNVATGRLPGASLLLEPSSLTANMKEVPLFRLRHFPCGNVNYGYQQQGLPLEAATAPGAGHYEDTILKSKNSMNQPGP
Chain of Mitogen-activated protein kinase 8 (P45983 whole entry): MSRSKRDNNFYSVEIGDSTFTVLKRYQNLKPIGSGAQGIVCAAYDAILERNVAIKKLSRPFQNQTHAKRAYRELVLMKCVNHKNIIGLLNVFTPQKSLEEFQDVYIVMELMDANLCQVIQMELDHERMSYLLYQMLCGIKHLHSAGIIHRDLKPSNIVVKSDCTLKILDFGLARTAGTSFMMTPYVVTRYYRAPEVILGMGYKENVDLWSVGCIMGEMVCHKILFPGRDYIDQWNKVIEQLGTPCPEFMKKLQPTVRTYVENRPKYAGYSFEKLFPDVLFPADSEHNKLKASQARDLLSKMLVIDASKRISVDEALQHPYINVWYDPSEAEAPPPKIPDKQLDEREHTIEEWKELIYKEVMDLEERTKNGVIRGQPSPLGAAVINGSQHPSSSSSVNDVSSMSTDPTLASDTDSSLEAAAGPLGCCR

Row | Structure (SMILES) | IC50 [1] | IC50 [2] | other results
1 | CCCN1CCC=C(c2ccc(Nc3nc(Nc4cc(F)ccc4C(N)=O)c4cc[nH]c4n3)c(OC(C)C)c2)C1 | 2240 nM | 3.2 nM | –
2 | COc1cc(N2CCN(C(C)C)CC2)ccc1N(C)c1nc(Nc2cccc(F)c2C(N)=O)c2cc[nH]c2n1 | – | 50 nM | –
3 | COc1ccc(N2CCN(C(C)C)CC2)cc1Nc1nc(Nc2cccc(F)c2C(N)=O)c2cc[nH]c2n1 | 160 nM | 4 nM | –
4 | COc1cc(N2CCN(C(C)C)CC2)ccc1Nc1nc(Nc2ccccc2C(N)=O)c2cc[nH]c2n1 | 71 nM | 1 nM | Cmax [3]: 69 ng/mL; clearance [4]: 142 mL/min/kg; bioavailability [5]: 37%; Vd [6]: 19.5 L/kg; AUC (Rattus norvegicus [7]): 35 ng·h/mL/mg/kg
5 | COc1c(Nc2nc(Nc3cccc(F)c3C(N)=O)c3cc[nH]c3n2)ccc(N2CCN(C(C)C)CC2)c1F | 574 nM | 4 nM | –
6 | COc1cc(N2CCN(C(C)C)CC2)ccc1Nc1nc(Nc2ccc(F)cc2C(=O)NCCO)c2cc[nH]c2n1 | 650 nM | 5 nM | –
7 | COc1cc(N2CCN(C(C)C)CC2)ccc1Nc1nc(Nc2cc(F)cc(F)c2C(N)=O)c2cc[nH]c2n1 | 90 nM | – | Vdss (Rattus norvegicus [8]): 11 L/kg; AUC (Rattus norvegicus [9]): 117 ng·h/mL/mg/kg; Cmax [10]: 200 ng/mL; bioavailability [11]: 37%; clearance [12]: 46 mL/min/kg
8 | CCCN1CCC=C(c2ccc(Nc3nc(Nc4cc(F)ccc4C(N)=O)c4cc[nH]c4n3)c(OC)c2)C1 | 82 nM | 0.8 nM | –
9 | COc1cc(N2CCN(C(C)C)CC2)ccc1Nc1nc(Nc2ccc(F)cc2C(N)=O)c2cc[nH]c2n1 [GSK-1220512A] | 60 nM | 0.8 nM | –
10 | COc1cc(N2CCN(C(C)C)CC2)c(C)cc1Nc1nc(Nc2cccc(F)c2C(N)=O)c2cc[nH]c2n1 | 38 nM | 2 nM | –
11 | COc1cc(N2CCN(C(C)C)CC2)c(F)cc1Nc1nc(Nc2cccc(F)c2C(N)=O)c2cc[nH]c2n1 | 190 nM | 2 nM | –
12 | CCCN1CCC=C(c2ccc(Nc3nc(Nc4ccccc4C(N)=O)c4cc[nH]c4n3)c(C(F)(F)F)c2)C1 | > 10000 nM | 20 nM | –
13 | COc1cc(N2CCN(C(C)C)CC2)ccc1Nc1nc(Nc2cc(F)c(F)cc2C(N)=O)c2cc[nH]c2n1 | 53 nM | 0.5 nM | bioavailability [13]: 45%; AUC (Rattus norvegicus [14]): 114 ng·h/mL/mg/kg; Vdss (Rattus norvegicus [15]): 17 L/kg; Cmax [16]: 152 ng/mL; clearance [17]: 64 mL/min/kg
14 | COCCNC(=O)c1cc(F)ccc1Nc1nc(Nc2ccc(N3CCN(C(C)C)CC3)cc2OC)nc2[nH]ccc12 | 760 nM | 25 nM | –
15 | COc1cc(N2CCN(C(C)C)CC2)ccc1Nc1nc(Nc2cccc(F)c2C(N)=O)c2cc[nH]c2n1 | 109 nM | – | Cmax [18]: 184 ng/mL; AUC (Rattus norvegicus [19]): 156 ng·h/mL/mg/kg; Vd [20]: 18.5 L/kg
16 | CCCN1CCC(c2ccc(Nc3nc(Nc4cc(F)ccc4C(N)=O)c4cc[nH]c4n3)c(OC)c2)CC1 [GSK-1326255A] | 47 nM | 0.3 nM | –
17 | COc1cc(N2CCN(C(C)C)CC2)c(Cl)cc1Nc1nc(Nc2cccc(F)c2C(N)=O)c2cc[nH]c2n1 | 65 nM | 1.6 nM | –

Row | Structure (SMILES) | IC50 [1] | IC50 [2] | other results
18 | COc1cc(N2CCN(C(C)C)CC2)ccc1Nc1nc(Nc2ccc(F)cc2C(=O)NO)c2cc[nH]c2n1 | 613 nM | 6.3 nM | –
19 | COc1cc(N2CCOCC2)ccc1Nc1nc(Nc2cc(F)ccc2C(N)=O)c2cc[nH]c2n1 | 68 nM | 1.6 nM | –
20 | COc1c(Nc2nc(Nc3cccc(F)c3C(N)=O)c3cc[nH]c3n2)ccc(N2CCN(C(C)C)CC2)c1C | 3700 nM | 8 nM | –
21 | COc1cc(N2CCN(C(C)C)CC2)ccc1Nc1nc(Nc2ccc(F)cc2C(=O)NC[C@@H](O)CO)c2cc[nH]c2n1 [GSK-1392956A] | 5600 nM | 16 nM | –
22 | CCCN1CCCC(c2ccc(Nc3nc(Nc4cc(F)ccc4C(N)=O)c4cc[nH]c4n3)c(OC)c2)C1 (racemic) [GSK-1173862A] | 60 nM | 0.4 nM | –
23 | CNC(=O)c1cc(F)ccc1Nc1nc(Nc2ccc(N3CCN(C(C)C)CC3)cc2OC)nc2[nH]ccc12 | 135 nM | 3.2 nM | –
24 | CCCN1CCN(c2ccc(Nc3nc(Nc4cc(F)ccc4C(N)=O)c4cc[nH]c4n3)c(OC)c2)CC1 | 122 nM | 1.6 nM | –
25 | COc1cc(N2CCN(C(C)C)CC2)ccc1Nc1nc(Nc2cc(F)ccc2C(N)=O)c2cc[nH]c2n1 | 130 nM | 0.8 nM | –
26 | CNC(=O)c1c(F)cccc1Nc1nc(Nc2ccc(N3CCN(C(C)C)CC3)cc2OC)nc2[nH]ccc12 | 370 nM | 5 nM | AUC (Rattus norvegicus [21]): 277 ng·h/mL/mg/kg; Cmax [22]: 418 ng/mL; bioavailability [23]: 83%; Vdss (Rattus norvegicus [24]): 22.3 L/kg; clearance [25]: 32 mL/min/kg
27 | CCCN1CCC=C(c2ccc(Nc3nc(Nc4ccccc4C(N)=O)c4cc[nH]c4n3)c(OC)c2)C1 | 104 nM | 0.6 nM | IC50 (Aurora kinase B): > 10000 nM
28 | COc1cc(N2CCN(C(C)C)CC2)ccc1Nc1nc(Nc2cccc(F)c2C(N)=O)c2ccn(C)c2n1 | – | 10000 nM | –
29 | CCCN1CCC=C(c2ccc(Nc3nc(Nc4ccccc4C(N)=O)c4cc[nH]c4n3)c(C)c2)C1 [GSK-994854A] | – | 5 nM | IC50 [26]: 12 nM; IC50 [27]: 1 nM; IC50 (Insulin receptor): 6.3 nM
30 | COc1cc(C)c(N2CCN(C(C)C)CC2)cc1Nc1nc(Nc2cccc(F)c2C(N)=O)c2cc[nH]c2n1 | 270 nM | 20 nM | –
31 | COc1cc(N2CCN(C(C)C)CC2)ccc1Nc1nc(Nc2ccc(F)c(F)c2C(N)=O)c2cc[nH]c2n1 | 213 nM | – | –
32 | CCCN1CCC=C(c2ccc(Nc3nc(Nc4ccccc4C(N)=O)c4cc[nH]c4n3)c(F)c2)C1 | 317 nM | 1.6 nM | IC50 (Aurora kinase B): 1600 nM
33 | COc1cc(N2CCN(C(C)C)CC2)c(OC)cc1Nc1nc(Nc2cccc(F)c2C(N)=O)c2cc[nH]c2n1 | 90 nM | 3.2 nM | –
34 | CCCN1CCC=C(c2ccc(Nc3nc(Nc4ccccc4C(N)=O)c4cc[nH]c4n3)cc2)C1 | – | 1.6 nM | IC50 (Aurora kinase B): 5 nM
